Patent US20040039022A1, “NMDA receptor agonist pharmaceutical compositions” (Pfizer Inc., priority 2000, published 2004)

Columns and labels:
Type in all cases: physicochemical
[1] = pH of buffered 10 mgA/ml formulations of the Compound at 70° C.
From the text: Table 2 exemplifies the use of various buffers to stabilize the pH of formulations containing 10 mgA/ml of the Compound. [table]

[2] = Maximum solubility of the Compound; details: at 5° C.
Protocol: A preferred presentation of the composition aspects of the invention comprises the Compound at a concentration of 10 mgA/mL. This concentration is near the maximum solubility of the Compound (about 12 mgA/mL at 5° C.). The preferred solution of the composition is 10 mM lactate buffer. However, those skilled in the art will appreciate that buffer solutions of other anions may be used, including, but not limited to, buffer solutions of the anions acetate, citrate, tartrate and formate.

[3] = pH shift of aqueous formulations (water only; terminal sterilization of lactate buffered formulation)
From the text: Aqueous solutions of the Compound are susceptible to pH shift. […] When the Compound is formulated with only water, the pH of the formulation increases above 5. This pH shift results in conditions favorable to the oxidative degradation reaction, thus accelerating the degradation of the aqueous formulation. The increase in pH also decreases the solubility of the compound, thereby increasing the possibility of precipitation out of solution. Vials are preferably sterilized by terminal sterilization methods employing an autoclave. Preferably, sterilization is for 8 minutes at 121° C. Sterilization may cause a slight shift of pH. In the lactate buffered formulation, pH shifted slightly down. In order to achieve a mid-point in the preferred pH range, the initial pH is preferably set to 4.5. The terminal sterilization cycle reduces the pH to about 4.2. The pH of the initial formulation is set at pH 4.5 to accommodate the slight pH down-shifting upon terminal sterilization. […] Sodium hydroxide and hydrochloric acid are used as needed to adjust the solution to the desired pH.

pH at 70° C. ([1]; 3 mM lactate, 2 days): 4.21
pH at 70° C. ([1]; 3 mM lactate, 7 days): 4.20
pH at 70° C. ([1]; 3 mM lactate, 21 days): 4.14
pH at 70° C. ([1]; 3 mM lactate, Initial (post-TS)): 4.24
pH at 70° C. ([1]; 10 mM acetate, 4 days): 4.14
pH at 70° C. ([1]; 10 mM acetate, 7 days): 4.14
pH at 70° C. ([1]; 10 mM acetate, 21 days): 4.17
pH at 70° C. ([1]; 10 mM acetate, Initial (post-TS)): 4.16
pH at 70° C. ([1]; 10 mM benzoate, 4 days): 4.16
pH at 70° C. ([1]; 10 mM benzoate, 7 days): 4.20
pH at 70° C. ([1]; 10 mM benzoate, Initial (post-TS)): 4.21
pH at 70° C. ([1]; 10 mM citrate, 2 days): 4.16
pH at 70° C. ([1]; 10 mM citrate, 7 days): 4.17
pH at 70° C. ([1]; 10 mM citrate, 21 days): 4.11
pH at 70° C. ([1]; 10 mM citrate, Initial (post-TS)): 4.16
pH at 70° C. ([1]; 10 mM formate, 2 days): 4.18
pH at 70° C. ([1]; 10 mM formate, 7 days): 4.16
pH at 70° C. ([1]; 10 mM formate, 21 days): 4.13
pH at 70° C. ([1]; 10 mM formate, Initial (post-TS)): 4.17
pH at 70° C. ([1]; 10 mM tartrate, 2 days): 4.17
pH at 70° C. ([1]; 10 mM tartrate, 7 days): 4.17
pH at 70° C. ([1]; 10 mM tartrate, 21 days): 4.07
pH at 70° C. ([1]; 10 mM tartrate, Initial (post-TS)): 4.15
maximum solubility [2]: about 12 mgA/mL
pH of the formulation ([3]; Compound formulated with only water): above 5
pH after terminal sterilization cycle ([3]; lactate buffered formulation, initial pH 4.5, autoclave 8 minutes at 121° C.): about 4.2
Structure (SMILES): C[C@@H]([C@@H](O)c1ccc(O)cc1)N1CCC(O)(c2ccccc2)CC1 [Compound, (1S,2S)-1-(4-Hydroxyphenyl)-2-(4-hydroxy4-phenylpiperidin-1-yl)-1-propanol]
